Results reported in PubChem BioAssay (NCI).
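Test compounds were applied to cells in 96-well plates for 48 hours at 5 doses. Definition used: TGI = concentration required for complete inhibition of growth.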

How the values were obtained:
Test in all cases: inhibition of tumour cell growth, NCI panel, 48 h
786-0 renal = system: 786-0 renal
A498 renal = system: A498 renal
A549 NSCLC = system: A549 NSCLC
ACHN renal = system: ACHN renal
CAKI-1 renal = system: CAKI-1 renal
CCRF-CEM leukemia = system: CCRF-CEM leukemia
COLO 205 colon = system: COLO 205 colon
DU-145 prostate = system: DU-145 prostate
EKVX NSCLC = system: EKVX NSCLC
HCC-2998 colon = system: HCC-2998 colon
HCT-116 colon = system: HCT-116 colon
HL-60(TB) leukemia = system: HL-60(TB) leukemia
HOP-62 NSCLC = system: HOP-62 NSCLC
HOP-92 NSCLC = system: HOP-92 NSCLC
HS 578T breast = system: HS 578T breast
IGROV1 ovarian = system: IGROV1 ovarian
K-562 leukemia = system: K-562 leukemia
KM12 colon = system: KM12 colon
LOX IMVI melanoma = system: LOX IMVI melanoma
M14 melanoma = system: M14 melanoma
MALME-3M melanoma = system: MALME-3M melanoma
MCF7 breast = system: MCF7 breast
MDA-MB-231 breast = system: MDA-MB-231 breast
MDA-MB-435 = system: MDA-MB-435
MDA-N = system: MDA-N
MOLT-4 leukemia = system: MOLT-4 leukemia
NCI-H226 lung = system: NCI-H226 lung
NCI-H23 lung = system: NCI-H23 lung
NCI-H460 lung = system: NCI-H460 lung
NCI-H522 lung = system: NCI-H522 lung
NCI/ADR-RES ovarian = system: NCI/ADR-RES ovarian
OVCAR-3 ovarian = system: OVCAR-3 ovarian
OVCAR-5 ovarian = system: OVCAR-5 ovarian
OVCAR-8 ovarian = system: OVCAR-8 ovarian
PC-3 prostate = system: PC-3 prostate
RPMI-8226 leukemia = system: RPMI-8226 leukemia
RXF 393 renal = system: RXF 393 renal
SF-268 CNS = system: SF-268 CNS
SF-295 CNS = system: SF-295 CNS
SF-539 CNS = system: SF-539 CNS
SK-MEL-2 melanoma = system: SK-MEL-2 melanoma
SK-MEL-28 melanoma = system: SK-MEL-28 melanoma
SK-MEL-5 melanoma = system: SK-MEL-5 melanoma
SK-OV-3 ovarian = system: SK-OV-3 ovarian
SN12C renal = system: SN12C renal
SNB-19 CNS = system: SNB-19 CNS
SR leukemia = system: SR leukemia
SW-620 colon = system: SW-620 colon
T-47D breast = system: T-47D breast
TK-10 renal = system: TK-10 renal
U251 CNS = system: U251 CNS
UACC-257 melanoma = system: UACC-257 melanoma
UACC-62 melanoma = system: UACC-62 melanoma
UO-31 renal = system: UO-31 renal

O=[N+]([O-])/C=C\c1c[nH]c2ccc(OCc3ccccc3)cc12
TGI (786-0 renal): 4.56 µM
TGI (A498 renal): 22.6 µM
TGI (A549 NSCLC): 14.8 µM
TGI (ACHN renal): 4.72 µM
TGI (CAKI-1 renal): 53.5 µM
TGI (CCRF-CEM leukemia): > 100 µM
TGI (COLO 205 colon): 13.4 µM
TGI (DU-145 prostate): 22.2 µM
TGI (EKVX NSCLC): 29.3 µM
TGI (HCC-2998 colon): 3.66 µM
TGI (HCT-116 colon): 3.27 µM
TGI (HL-60(TB) leukemia): 8.78 µM
TGI (HOP-62 NSCLC): 29.4 µM
TGI (HOP-92 NSCLC): 19.4 µM
TGI (HS 578T breast): 7.24 µM
TGI (IGROV1 ovarian): 15.8 µM
TGI (K-562 leukemia): 6.88 µM
TGI (KM12 colon): 8.86 µM
TGI (LOX IMVI melanoma): 3.5 µM
TGI (M14 melanoma): 4.49 µM
TGI (MALME-3M melanoma): 25.9 µM
TGI (MCF7 breast): 73.7 µM
TGI (MDA-MB-231 breast): 18 µM
TGI (MDA-MB-435): 4.73 µM
TGI (MDA-N): 5.56 µM
TGI (MOLT-4 leukemia): > 100 µM
TGI (NCI-H226 lung): 13.4 µM
TGI (NCI-H23 lung): 7.33 µM
TGI (NCI-H460 lung): 25.1 µM
TGI (NCI-H522 lung): 22.4 µM
TGI (NCI/ADR-RES ovarian): 50.1 µM
TGI (OVCAR-3 ovarian): 22.8 µM
TGI (OVCAR-5 ovarian): 25.6 µM
TGI (OVCAR-8 ovarian): 17.1 µM
TGI (PC-3 prostate): 21.5 µM
TGI (RPMI-8226 leukemia): 4.62 µM
TGI (RXF 393 renal): 6.73 µM
TGI (SF-268 CNS): 25.6 µM
TGI (SF-295 CNS): 23.8 µM
TGI (SF-539 CNS): 22.6 µM
TGI (SK-MEL-2 melanoma): 24 µM
TGI (SK-MEL-28 melanoma): 9.47 µM
TGI (SK-MEL-5 melanoma): 19.2 µM
TGI (SK-OV-3 ovarian): 31.6 µM
TGI (SN12C renal): 10 µM
TGI (SNB-19 CNS): 16.5 µM
TGI (SR leukemia): 4.91 µM
TGI (SW-620 colon): 7.31 µM
TGI (T-47D breast): 12.4 µM
TGI (TK-10 renal): 23.1 µM
TGI (U251 CNS): 19 µM
TGI (UACC-257 melanoma): 3.73 µM
TGI (UACC-62 melanoma): 14.1 µM
TGI (UO-31 renal): 15.2 µM
